Our source for the IC50 values is patent publication US20260258025A1, “INHIBITORS OF TDP-43 AND TAU AGGREGATION” (Aquinnah Pharmaceuticals, inc., priority 2023, published 2026).

A value given as a limit tells only on which side of the number the result lay.

The assay has as its system tau stress granules. The assay can be described thus: SY5Y-tT1 tau arsenite assay (tau stress granules per cell). It counts as cell-based. The following applies: SY5Y-tT1 cells, 2 hours compound, 90 minutes arsenite, 50% reduction of granules per cell, read-out: IC50, Inhibitor Activity of Tau Stress Granules. Here is the method: Example 91: In Vitro Efficacy Assay of Exemplary Compounds—SY5Y-tT1 Tau Arsenite/Thapsigargin Assay
• Before harvesting cells—checked to see if cells are ~80% confluency in their flask • 1. Aspirated growth media from flask. • 2. Added 4 mL of (0.25%) trypsin-EDTA (REF: 25200-056) • 3. Placed in 37° C. incubator for 5 minutes. • 4. Removed from incubator and added 11 mL growth media, washing any remaining cells adhered to the bottom of the flask. • 5. Transferred cell containing media to a 50 mL conical tube and spun for 5 minutes at 800 rpm. • 6. Aspirated supernatant and added 5 mL of growth media to cell pellet, triturating to make a homogenous cell solution. • 7. After counting cells, followed one of these plating paradigms: • (A) If treating with arsenite, plated cells at […] with tetracycline solution (5 mg/mL) added to cell solution at 1:5000 • (B) If treating with thapsigargin, plated cells at 4,000 cells/well with tetracycline solution (5 mg/mL) added to cell solution at 1:5000 • 8. Incubated at 37° C. for 48 hours.
• Solubilized all compounds to 10 mM prior to making dilution plates • 1. To a 96-well U-bottom plate (Falcon Non-Tissue Culture Treated Plates REF: 351177) added 120 μL growth media to all 96 wells, with an additional 58.2 μL to row A. • 2. Added 1.8 μL of 10 mM compound stock to wells A1-11, adding 1.8 μL of 10 mM PERKi stock (Selleck Chemistry GSK2606414 Cat No. S7307) as the control. • 3. Serially diluted 60 μL from row A down through each row, finishing with 180 μL total volume in row H. • 4. Transferred 12.5 μL of each dilution plate well to the correlating wells in cell plate, being careful not to touch cells adhered to bottom of the plate. • 5. Incubated for 2 hours.
• 1. Added 720 μL of 0.05 M sodium arsenite solution (CAS #: 7784-46-5) to 10 mL of growth media for a final concentration of […] arsenite solution, mix well. • 2. Added 12.5 μL of arsenite solution to all wells of compounds treated plate intended for arsenite treatment. • 3. Incubated at 37° C. for 90 minutes.
• Before beginning this part of the protocol: • Made 1×PBS by diluting 10× stock (10×, Phosphate buffered saline, Fisher #BP399— • 4) in sterile deionized water. • Diluted paraformaldehyde (16% Paraformaldehyde solution, Electron Microscopy Sciences #15710-S) to 4% in 1×PBS. • Diluted Hoechst stain (Life Technologies #H3570) 1:10,000 in 1×PBS (1 μL Hoechst per 10 mL 1×PBS). • Both solutions were protected from light. • 1) After compound treatment, aspirated media from cell plates and gently added in 50 μL of 4% paraformaldehyde for 10 min protected from light at room temperature. • 2) Aspirated paraformaldehyde solution and gently added 50 μL of 1:10,000 Hoechst solution to each well and incubated for 10 min protected from light at room temperature. • 3) Aspirated Hoechst solution and gently added 100 μL 1×PBS. Cover the plate with aluminum film (VWR #60941-126). • 4) Stored at 4° C. or used immediately for imaging on ThermoFisher CX7 imager.
Exemplary compounds of the disclosed herein were evaluated for efficacy for inhibitor activity of tau stress granules in the arsenite assay and quantified as drug concentration providing a 50% reduction (IC50) of granules per cell is shown in Table 4.
In Table 4 below, A indicates an IC50 (μM)<0.5 μM, B indicates an IC50 (μM) 0.5 μM to <1 μM, C indicates an IC50 (μM) 1 μM to <2 μM, and D indicates an IC50 (μM) 2 μM to <6 μM.
Usually IC50 stands for the point on the concentration scale where inhibition reaches its midpoint. Turning to `Cc1cc(-c2ccc(N3CCN(C4CCOC4)CC3)cc2)sc1C(=O)N1CC[C@H](N)C1` (stereo partly drawn) [Compound 152, ((S)-3-aminopyrrolidin-1-yl)(3-methyl-5-(4-(4-(tetrahydrofuran-3-yl)piperazin-1-yl)phenyl)thiophen-2-yl)methanone], the IC50 is 1000 to 2000 nM. On to `Cc1cc(-c2ccc(CN(C)C)cc2)sc1C(=O)N1CC[C@H](N)C1` [Compound 217, (S)-(3-aminopyrrolidin-1-yl)(5-(4-((dimethylamino)methyl)phenyl)-3-methylthiophen-2-yl)methanone], for which the IC50 is 1000 to 2000 nM.

For the compound `Cc1cc(-c2ccc(C3CCN(C)CC3)cn2)sc1C(=O)N1CC[C@H](N)C1` [Compound 104, (S)-(3-aminopyrrolidin-1-yl)(3-methyl-5-(5-(1-methylpiperidin-4-yl)pyridin-2-yl)thiophen-2-yl)methanone], the IC50 is 1000 to 2000 nM. To `Cc1cc(-c2ccc(N3CCN(C4CCC4)CC3)cc2)sc1C(=O)N1CC[C@H](N)C1` [Compound 158, (S)-(3-aminopyrrolidin-1-yl)(5-(4-(4-cyclobutylpiperazin-1-yl)phenyl)-3-methylthiophen-2-yl)methanone] belongs 1000 to 2000 nM. With `CCc1cc(-c2ccc(C3CCN(C(C)C)CC3)cc2)sc1C(=O)N1CC[C@H](N)C1` [Compound 118, (S)-(3-aminopyrrolidin-1-yl)(3-ethyl-5-(4-(1-isopropylpiperidin-4-yl)phenyl)thiophen-2-yl)methanone] the figure was 1000 to 2000 nM; with `Cc1cc(-c2ccc(C3CCN(C)CC3)c(OC(F)(F)F)c2)sc1C(=O)N1CC[C@H](N)C1` [Compound 112, (S)-(3-aminopyrrolidin-1-yl)(3-methyl-5-(4-(1-methylpiperidin-4-yl)-3-(trifluoromethoxy)phenyl)thiophen-2-yl)methanone], 2000 to 6000 nM. Turning to `C=Cc1cc(-c2ccc(C3CCN(C(C)C)CC3)cc2)sc1C(=O)N1CC[C@H](N)C1` [Compound 117, (S)-(3-aminopyrrolidin-1-yl)(5-(4-(1-isopropylpiperidin-4-yl)phenyl)-3-vinylthiophen-2-yl)methanone], the IC50 lay within 1000 to 2000 nM.

Turning to `C=CCc1cc(-c2ccc(C3CCN(C(C)C)CC3)cc2)sc1C(=O)N1CC[C@H](N)C1` [Compound 109, (S)-(3-allyl-5-(4-(1-isopropylpiperidin-4-yl)phenyl)thiophen-2-yl)(3-aminopyrrolidin-1-yl)methanone], the IC50 is < 500 nM. With `Cc1cc(-c2ccc(N3CCN(C4CCOCC4)CC3)cc2)sc1C(=O)N1CC[C@H](N)C1` [Compound 151, (S)-(3-aminopyrrolidin-1-yl)(3-methyl-5-(4-(4-(tetrahydro-2H-pyran-4-yl)piperazin-1-yl)phenyl)thiophen-2-yl)methanone] the figure was 2000 to 6000 nM.

With `Cc1cc(-c2ccc(C3CCNCC3)c(F)c2)sc1C(=O)N1CC[C@H](N)C1` [Compound 140, (S)-(3-aminopyrrolidin-1-yl)(5-(3-fluoro-4-(piperidin-4-yl)phenyl)-3-methylthiophen-2-yl)methanone], the IC50 is 500 to 1000 nM. Consider `Cc1cc(-c2cc(C)c(C(=O)N3CC[C@H](N)C3)s2)ccc1C1CCN(C)CC1` [Compound 144, (S)-(3-aminopyrrolidin-1-yl)(3-methyl-5-(3-methyl-4-(1-methylpiperidin-4-yl)phenyl)thiophen-2-yl)methanone], for which the IC50 lay within 2000 to 6000 nM. In the case of `Cc1cc(-c2ccc(N3CCNCC3)cc2)sc1C(=O)N1CC[C@H](N)C1` [Compound 162, (S)-(3-aminopyrrolidin-1-yl)(3-methyl-5-(4-(piperazin-1-yl)phenyl)thiophen-2-yl)methanone], the IC50 lay within 1000 to 2000 nM. To `Cc1cc(-c2ccc(C3CCN(CC4CCOCC4)CC3)cc2)sc1C(=O)N1CC[C@H](N)C1` [Compound 147, (S)-(3-aminopyrrolidin-1-yl)(3-methyl-5-(4-(1-((tetrahydro-2H-pyran-4-yl)methyl)piperidin-4-yl)phenyl)thiophen-2-yl)methanone] belongs < 500 nM; to `Cc1cc(-c2ccc(C3CCN(C)CC3)c(Cl)c2)sc1C(=O)N1CC[C@H](N)C1` [Compound 135, (S)-(3-aminopyrrolidin-1-yl)(5-(3-chloro-4-(1-methylpiperidin-4-yl)phenyl)-3-methylthiophen-2-yl)methanone], 2000 to 6000 nM. With `Cc1cc(-c2ccc(C3CCN(C)CC3)cc2F)sc1C(=O)N1CC[C@H](N)C1` [Compound 128, (S)-(3-aminopyrrolidin-1-yl)(5-(2-fluoro-4-(1-methylpiperidin-4-yl)phenyl)-3-methylthiophen-2-yl)methanone] the figure was 1000 to 2000 nM; with `Cc1cc(-c2ccc(C3CCN(C)CC3)nc2)sc1C(=O)N1CC[C@H](N)C1` [Compound 108, (S)-(3-aminopyrrolidin-1-yl)(3-methyl-5-(6-(1-methylpiperidin-4-yl)pyridin-3-yl)thiophen-2-yl)methanone], 500 to 1000 nM. Regarding `Cc1cc(-c2ccc(C3CCN(C4COC4)CC3)cc2)sc1C(=O)N1CC[C@H](N)C1` [Compound 164, (S)-(3-aminopyrrolidin-1-yl)(3-methyl-5-(4-(1-(oxetan-3-yl)piperidin-4-yl)phenyl)thiophen-2-yl)methanone], the IC50 was < 500 nM. In the case of `Cc1cc(-c2ccc(N3CCN(C4CCCCC4)CC3)cc2)sc1C(=O)N1CC[C@H](N)C1` [Compound 148, (S)-(3-aminopyrrolidin-1-yl)(5-(4-(4-cyclohexylpiperazin-1-yl)phenyl)-3-methylthiophen-2-yl)methanone], the IC50 was in the range of 1000 to 2000 nM. With `Cc1cc(-c2cnc(C3CCN(C)CC3)nc2)sc1C(=O)N1CC[C@H](N)C1` [Compound 124, (S)-(3-aminopyrrolidin-1-yl)(3-methyl-5-(2-(1-methylpiperidin-4-yl)pyrimidin-5-yl)thiophen-2-yl)methanone] the figure was < 500 nM; with `Cc1cc(-c2ccc(C3CCN(C)CC3)cc2Cl)sc1C(=O)N1CC[C@H](N)C1` [Compound 120, (S)-(3-aminopyrrolidin-1-yl)(5-(2-chloro-4-(1-methylpiperidin-4-yl)phenyl)-3-methylthiophen-2-yl)methanone], 1000 to 2000 nM. With `Cc1cc(-c2ccc(C3(N(C)C)CCOCC3)cc2)sc1C(=O)N1CC[C@H](N)C1` [Compound 166, (S)-(3-aminopyrrolidin-1-yl)(5-(4-(4-(dimethylamino)tetrahydro-2H-pyran-4-yl)phenyl)-3-methylthiophen-2-yl)methanone] the figure was < 500 nM; with `Cc1cc(-c2ccc(C3CCN(CC4CCCCO4)CC3)cc2)sc1C(=O)N1CC[C@H](N)C1` (stereo partly drawn) [Compound 119, ((S)-3-aminopyrrolidin-1-yl)(3-methyl-5-(4-(1-((tetrahydro-2H-pyran-2-yl)methyl)piperidin-4-yl)phenyl)thiophen-2-yl)methanone], 500 to 1000 nM; with `Cc1cc(-c2ccc3c(c2)CCOC3)sc1C(=O)N1CC[C@H](N)C1` [Compound 165, (S)-(3-aminopyrrolidin-1-yl)(5-(isochroman-6-yl)-3-methylthiophen-2-yl)methanone], 500 to 1000 nM. To `Cc1cc(-c2ccc(C3CCNCC3)cc2F)sc1C(=O)N1CC[C@H](N)C1` [Compound 129, (S)-(3-aminopyrrolidin-1-yl)(5-(2-fluoro-4-(piperidin-4-yl)phenyl)-3-methylthiophen-2-yl)methanone] belongs 2000 to 6000 nM.
